In article PMC10175095 (Therapeutic drug monitoring, 2023):

What was measured:
[1] = Reinjection stability in final extract; type: physicochemical; conditions: reinjected, 4°C, autosampler, 25.95 h
[2] = Processed sample stability in final extract; type: physicochemical; conditions: 4°C, autosampler, 25.1 h
[3] = Long-term stability of unprocessed plasma samples at −80°C; type: in vitro ADME; conditions: human plasma
[4] = Freeze-thaw stability of unprocessed plasma samples; type: in vitro ADME; conditions: human plasma, 3 freeze (-80°C)-thaw cycles
[5] = Pre-processed stability in human plasma; type: in vitro ADME; conditions: 2.5 h
[6] = requires confirmation in prospective studies; cited from earlier work
[7] = RT (20–25°C), yellow light, nominal 15 ng/mL
[8] = RT (20–25°C), yellow light, nominal 1500 ng/mL

SMILES: CCN1CCN(Cc2ccc(Nc3ncc(F)c(-c4cc(F)c5nc(C)n(C(C)C)c5c4)n3)nc2)CC1 [Abemaciclib, abemaciclib]
- Accuracy vs fresh QCs ([1]; nominal 15 ng/mL): 98.2%
- Mean measured concentration ([1]; nominal 15 ng/mL): 16.4 ng/mL
- Accuracy vs fresh QCs ([1]; nominal 150 ng/mL): 98.7%
- Mean measured concentration ([1]; nominal 150 ng/mL): 155 ng/mL
- Accuracy vs fresh QCs ([1]; nominal 1500 ng/mL): 103%
- Mean measured concentration ([1]; nominal 1500 ng/mL): 1527 ng/mL
- Accuracy vs fresh QCs ([2]; nominal 15 ng/mL): 95.6%
- Mean measured concentration ([2]; nominal 15 ng/mL): 15.9 ng/mL
- Accuracy vs fresh QCs ([2]; nominal 1500 ng/mL): 102%
- Mean measured concentration ([2]; nominal 1500 ng/mL): 1510 ng/mL
- Accuracy vs fresh QCs ([3]; 3 months, nominal 15 ng/mL): 98.6%
- Mean measured concentration ([3]; 3 months, nominal 15 ng/mL): 14.7 ng/mL
- Accuracy vs fresh QCs ([3]; 3 months, nominal 150 ng/mL): 95.5%
- Mean measured concentration ([3]; 3 months, nominal 150 ng/mL): 149 ng/mL
- Accuracy vs fresh QCs ([3]; 3 months, nominal 1500 ng/mL): 95.6%
- Mean measured concentration ([3]; 3 months, nominal 1500 ng/mL): 1437 ng/mL
- Mean measured concentration ([3]; 7 months, nominal 15 ng/mL): 14.1 ng/mL
- Accuracy vs fresh QCs ([3]; 7 months, nominal 150 ng/mL): 98.9%
- Mean measured concentration ([3]; 7 months, nominal 150 ng/mL): 156 ng/mL
- Accuracy vs fresh QCs ([3]; 7 months, nominal 1500 ng/mL): 97.5%
- Mean measured concentration ([3]; 7 months, nominal 1500 ng/mL): 1443 ng/mL
- Mean measured concentration ([3]; 12 months, nominal 15 ng/mL): 15.2 ng/mL
- Accuracy vs fresh QCs ([3]; 12 months, nominal 150 ng/mL): 99.0%
- Mean measured concentration ([3]; 12 months, nominal 150 ng/mL): 164 ng/mL
- Accuracy vs fresh QCs ([3]; 12 months, nominal 1500 ng/mL): 96.6%
- Mean measured concentration ([3]; 12 months, nominal 1500 ng/mL): 1583 ng/mL
- Mean measured concentration ([4]; nominal 15 ng/mL): 15.1 ng/mL
- Accuracy vs fresh QCs ([4]; nominal 1500 ng/mL): 98.8%
- Accuracy vs. nominal concentration ([4]; nominal 1500 ng/mL): 98.7%
- Mean measured concentration ([4]; nominal 1500 ng/mL): 1480 ng/mL
- Accuracy vs fresh QCs ([5]; 37°C, dark, nominal 15 ng/mL): 97.5%
- Mean measured concentration ([5]; 37°C, dark, nominal 15 ng/mL): 15.4 ng/mL
- Mean measured concentration ([5]; 37°C, dark, nominal 1500 ng/mL): 1527 ng/mL
- Accuracy vs fresh QCs [5, 7]: 99.4%
- Mean measured concentration [5, 7]: 15.7 ng/mL
- Mean measured concentration [5, 8]: 1550 ng/mL
- Proposed target Cmin for TDM [6]: 200 to 210 ng/mL

SMILES: CC(=O)c1c(C)c2cnc(Nc3ccc(N4CCNCC4)cn3)nc2n(C2CCCC2)c1=O [Palbociclib, palbociclib]
- Accuracy vs fresh QCs ([1]; nominal 15 ng/mL): 100%
- Accuracy vs. nominal concentration ([1]; nominal 15 ng/mL): 112%
- Mean measured concentration ([1]; nominal 15 ng/mL): 16.7 ng/mL
- Accuracy vs fresh QCs ([1]; nominal 150 ng/mL): 99.0%
- Accuracy vs. nominal concentration ([1]; nominal 150 ng/mL): 106%
- Mean measured concentration ([1]; nominal 150 ng/mL): 160 ng/mL
- Accuracy vs fresh QCs ([1]; nominal 1500 ng/mL): 100%
- Mean measured concentration ([1]; nominal 1500 ng/mL): 1473 ng/mL
- Accuracy vs fresh QCs ([2]; nominal 15 ng/mL): 99.0%
- Accuracy vs. nominal concentration ([2]; nominal 15 ng/mL): 110%
- Mean measured concentration ([2]; nominal 15 ng/mL): 16.5 ng/mL
- Accuracy vs fresh QCs ([2]; nominal 1500 ng/mL): 100%
- Accuracy vs. nominal concentration ([2]; nominal 1500 ng/mL): 98.7%
- Mean measured concentration ([2]; nominal 1500 ng/mL): 1480 ng/mL
- Accuracy vs fresh QCs ([3]; 3 months, nominal 15 ng/mL): 94.0%
- Accuracy vs. nominal concentration ([3]; 3 months, nominal 15 ng/mL): 99.8%
- Mean measured concentration ([3]; 3 months, nominal 15 ng/mL): 15.0 ng/mL
- Accuracy vs fresh QCs ([3]; 3 months, nominal 150 ng/mL): 92.8%
- Accuracy vs. nominal concentration ([3]; 3 months, nominal 150 ng/mL): 102%
- Mean measured concentration ([3]; 3 months, nominal 150 ng/mL): 153 ng/mL
- Accuracy vs fresh QCs ([3]; 3 months, nominal 1500 ng/mL): 92.8%
- Accuracy vs. nominal concentration ([3]; 3 months, nominal 1500 ng/mL): 96.0%
- Mean measured concentration ([3]; 3 months, nominal 1500 ng/mL): 1440 ng/mL
- Accuracy vs fresh QCs ([3]; 7 months, nominal 15 ng/mL): 92.1%
- Accuracy vs. nominal concentration ([3]; 7 months, nominal 15 ng/mL): 101.3%
- Mean measured concentration ([3]; 7 months, nominal 15 ng/mL): 15.2 ng/mL
- Accuracy vs fresh QCs ([3]; 7 months, nominal 150 ng/mL): 85.7%
- Accuracy vs. nominal concentration ([3]; 7 months, nominal 150 ng/mL): 109%
- Mean measured concentration ([3]; 7 months, nominal 150 ng/mL): 163 ng/mL
- Accuracy vs fresh QCs ([3]; 7 months, nominal 1500 ng/mL): 91.6%
- Accuracy vs. nominal concentration ([3]; 7 months, nominal 1500 ng/mL): 92.2%
- Mean measured concentration ([3]; 7 months, nominal 1500 ng/mL): 1383 ng/mL
- Accuracy vs fresh QCs ([3]; 12 months, nominal 15 ng/mL): 96.4%
- Accuracy vs. nominal concentration ([3]; 12 months, nominal 15 ng/mL): 104%
- Mean measured concentration ([3]; 12 months, nominal 15 ng/mL): 15.6 ng/mL
- Accuracy vs fresh QCs ([3]; 12 months, nominal 150 ng/mL): 95.3%
- Accuracy vs. nominal concentration ([3]; 12 months, nominal 150 ng/mL): 105%
- Mean measured concentration ([3]; 12 months, nominal 150 ng/mL): 157 ng/mL
- Accuracy vs fresh QCs ([3]; 12 months, nominal 1500 ng/mL): 87.0%
- Accuracy vs. nominal concentration ([3]; 12 months, nominal 1500 ng/mL): 108%
- Mean measured concentration ([3]; 12 months, nominal 1500 ng/mL): 1613 ng/mL
- Accuracy vs fresh QCs ([4]; nominal 15 ng/mL): 98.1%
- Accuracy vs. nominal concentration ([4]; nominal 15 ng/mL): 99.8%
- Mean measured concentration ([4]; nominal 15 ng/mL): 15.0 ng/mL
- Accuracy vs fresh QCs ([4]; nominal 1500 ng/mL): 98.7%
- Accuracy vs. nominal concentration ([4]; nominal 1500 ng/mL): 96.9%
- Mean measured concentration ([4]; nominal 1500 ng/mL): 1453 ng/mL
- Accuracy vs fresh QCs ([5]; 37°C, dark, nominal 15 ng/mL): 94.8%
- Accuracy vs. nominal concentration ([5]; 37°C, dark, nominal 15 ng/mL): 103%
- Mean measured concentration ([5]; 37°C, dark, nominal 15 ng/mL): 15.4 ng/mL
- Accuracy vs fresh QCs ([5]; 37°C, dark, nominal 1500 ng/mL): 102%
- Accuracy vs. nominal concentration ([5]; 37°C, dark, nominal 1500 ng/mL): 99.3%
- Mean measured concentration ([5]; 37°C, dark, nominal 1500 ng/mL): 1490 ng/mL
- Accuracy vs fresh QCs [5, 7]: 95.6%
- Accuracy vs. nominal concentration [5, 7]: 104%
- Mean measured concentration [5, 7]: 15.5 ng/mL
- Accuracy vs fresh QCs [5, 8]: 102%
- Accuracy vs. nominal concentration [5, 8]: 99.6%
- Mean measured concentration [5, 8]: 1493 ng/mL

SMILES: CN(C)C(=O)c1cc2cnc(Nc3ccc(N4CCNCC4)cn3)nc2n1C1CCCC1 [Ribociclib, ribociclib]
- Accuracy vs fresh QCs ([1]; nominal 15 ng/mL): 97.8%
- Accuracy vs. nominal concentration ([1]; nominal 15 ng/mL): 110%
- Mean measured concentration ([1]; nominal 15 ng/mL): 16.5 ng/mL
- Accuracy vs fresh QCs ([1]; nominal 150 ng/mL): 101%
- Accuracy vs. nominal concentration ([1]; nominal 150 ng/mL): 107%
- Mean measured concentration ([1]; nominal 150 ng/mL): 161 ng/mL
- Accuracy vs fresh QCs ([1]; nominal 1500 ng/mL): 101%
- Accuracy vs. nominal concentration ([1]; nominal 1500 ng/mL): 100%
- Mean measured concentration ([1]; nominal 1500 ng/mL): 1503 ng/mL
- Accuracy vs fresh QCs ([2]; nominal 15 ng/mL): 99.2%
- Accuracy vs. nominal concentration ([2]; nominal 15 ng/mL): 112%
- Mean measured concentration ([2]; nominal 15 ng/mL): 16.7 ng/mL
- Accuracy vs fresh QCs ([2]; nominal 1500 ng/mL): 99.8%
- Accuracy vs. nominal concentration ([2]; nominal 1500 ng/mL): 98.7%
- Mean measured concentration ([2]; nominal 1500 ng/mL): 1480 ng/mL
- Accuracy vs fresh QCs ([3]; 3 months, nominal 15 ng/mL): 106%
- Accuracy vs. nominal concentration ([3]; 3 months, nominal 15 ng/mL): 102%
- Mean measured concentration ([3]; 3 months, nominal 15 ng/mL): 15.3 ng/mL
- Accuracy vs fresh QCs ([3]; 3 months, nominal 150 ng/mL): 105%
- Accuracy vs. nominal concentration ([3]; 3 months, nominal 150 ng/mL): 98.7%
- Mean measured concentration ([3]; 3 months, nominal 150 ng/mL): 148 ng/mL
- Accuracy vs fresh QCs ([3]; 3 months, nominal 1500 ng/mL): 104%
- Accuracy vs. nominal concentration ([3]; 3 months, nominal 1500 ng/mL): 94.2%
- Mean measured concentration ([3]; 3 months, nominal 1500 ng/mL): 1413 ng/mL
- Accuracy vs fresh QCs ([3]; 7 months, nominal 15 ng/mL): 90.3%
- Accuracy vs. nominal concentration ([3]; 7 months, nominal 15 ng/mL): 98.4%
- Mean measured concentration ([3]; 7 months, nominal 15 ng/mL): 14.8 ng/mL
- Accuracy vs fresh QCs ([3]; 7 months, nominal 150 ng/mL): 86.0%
- Accuracy vs. nominal concentration ([3]; 7 months, nominal 150 ng/mL): 106%
- Mean measured concentration ([3]; 7 months, nominal 150 ng/mL): 160 ng/mL
- Accuracy vs fresh QCs ([3]; 7 months, nominal 1500 ng/mL): 88.8%
- Accuracy vs. nominal concentration ([3]; 7 months, nominal 1500 ng/mL): 93.6%
- Mean measured concentration ([3]; 7 months, nominal 1500 ng/mL): 1403 ng/mL
- Accuracy vs fresh QCs ([3]; 12 months, nominal 15 ng/mL): 107%
- Accuracy vs. nominal concentration ([3]; 12 months, nominal 15 ng/mL): 105%
- Mean measured concentration ([3]; 12 months, nominal 15 ng/mL): 15.7 ng/mL
- Accuracy vs fresh QCs ([3]; 12 months, nominal 150 ng/mL): 105%
- Accuracy vs. nominal concentration ([3]; 12 months, nominal 150 ng/mL): 108%
- Mean measured concentration ([3]; 12 months, nominal 150 ng/mL): 161 ng/mL
- Accuracy vs fresh QCs ([3]; 12 months, nominal 1500 ng/mL): 101%
- Accuracy vs. nominal concentration ([3]; 12 months, nominal 1500 ng/mL): 108%
- Mean measured concentration ([3]; 12 months, nominal 1500 ng/mL): 1613 ng/mL
- Accuracy vs fresh QCs ([4]; nominal 15 ng/mL): 98.3%
- Accuracy vs. nominal concentration ([4]; nominal 15 ng/mL): 100%
- Mean measured concentration ([4]; nominal 15 ng/mL): 15.0 ng/mL
- Accuracy vs fresh QCs ([4]; nominal 1500 ng/mL): 97.1%
- Accuracy vs. nominal concentration ([4]; nominal 1500 ng/mL): 97.1%
- Mean measured concentration ([4]; nominal 1500 ng/mL): 1457 ng/mL
- Accuracy vs fresh QCs ([5]; 37°C, dark, nominal 15 ng/mL): 97.8%
- Accuracy vs. nominal concentration ([5]; 37°C, dark, nominal 15 ng/mL): 106%
- Mean measured concentration ([5]; 37°C, dark, nominal 15 ng/mL): 15.9 ng/mL
- Accuracy vs fresh QCs ([5]; 37°C, dark, nominal 1500 ng/mL): 102%
- Accuracy vs. nominal concentration ([5]; 37°C, dark, nominal 1500 ng/mL): 100%
- Mean measured concentration ([5]; 37°C, dark, nominal 1500 ng/mL): 1500 ng/mL
- Accuracy vs fresh QCs [5, 7]: 98.0%
- Accuracy vs. nominal concentration [5, 7]: 106%
- Mean measured concentration [5, 7]: 15.9 ng/mL
- Accuracy vs fresh QCs [5, 8]: 102%
- Accuracy vs. nominal concentration [5, 8]: 100%
- Mean measured concentration [5, 8]: 1503 ng/mL
- Proposed target Cmin for TDM [6]: 711 ng/mL
